The data set can be described thus: recombinant UMI read abundance after kanamycin selection (control-corrected) (log10(CPM+1)); higher = more efficient recombination; extreme values may be limits of the assay; sequences stand for … in AGTGCAGAGAAAATCGGCCAGTTTTCTCTGCCTGCAGTCCGCATGCCGTGGGACCCCTTGGGTTCTAACCTGTTGCCTAGATTTATGCAGCGGACTGCCTTTCTCCCAAAGTGATAAACCGG…AGGTTGGTTTCACT; site = the 11-nt donor. The procedure, abridged: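 Sequencing read counts were converted to CPM, averaged over two replicates and scaled by control-derived factors. Results are given as log10(CPM+1). The reads covered the donor–target junction of recombinant UMIs from a pooled Escherichia coli screen of donor and donor-binding-loop pairs for the IS621 bridge recombinase.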
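Further: IS621 bridge recombinase in Escherichia coli cells against a fixed T5 target plasmid.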

As to “AGGACTACATGGACCGGTTTTCCCGGTAATCCGTATTTGAT (site AGGACTACTGT)”, the “recombinant UMI read abundance (log10)” value is 0.

Regarding “AGGACTACATGGACCGGTTTTCCCGGTAATCCGTATTTGAT (site AGGACTACTTT)”, the “recombinant UMI read abundance (log10)” value amounted to 0.00536.

On to “AGGACTACATGGACCGGTTTTCCCGGTAATCCGTATTTGCT (site AGGACTACTAG)”, for which the “recombinant UMI read abundance (log10)” value stood at 2.5.

As to “AGGACTACATGGACCGGTTTTCCCGGTAATCCGTATTTGTC (site AGGACTACTGA)”, the “recombinant UMI read abundance (log10)” value worked out at 2.

Turning to “AGGACTACATGGACCGGTTTTCCCGGTAATCCGTATTTGTC (site AGGACTACTGC)”, the “recombinant UMI read abundance (log10)” value is 0.

With “AGGACTACATGGACCGGTTTTCCCGGTAATCCGTATTTGTC (site AGGACTACTGG)”, the “recombinant UMI read abundance (log10)” value is 0.

For “AGGACTACATGGACCGGTTTTCCCGGTAATCCGTATTTGTC (site AGGACTACTGT)”, the “recombinant UMI read abundance (log10)” value was found to be 1.37.

In the case of “AGGAGCACATGGACCGGTTTTCCCGGTAATCCGTATTTGCA (site AGGAAGACTTG)”, the “recombinant UMI read abundance (log10)” value is 0.

Consider “AGGAGCACATGGACCGGTTTTCCCGGTAATCCGTATTTGCA (site AGGAGCACTTG)”, for which the “recombinant UMI read abundance (log10)” value came to 2.37.

In the case of “AGGAGGCCATGGACCGGTTTTCCCGGTAATCCGTATTTGAG (site AGGAGGCCTCT)”, the “recombinant UMI read abundance (log10)” value was 0.233.

Regarding “AGGATCTCATGGACCGGTTTTCCCGGTAATCCGTATTTGTG (site AGGATCTCTCA)”, the “recombinant UMI read abundance (log10)” value was 2.92.

Take “AGGATTTCATGGACCGGTTTTCCCGGTAATCCGTATTTGCG (site AGGATTTCTCG)”: the “recombinant UMI read abundance (log10)” value was found to be 1.32.

For the sequence “AGGCAAACATGGACCGGTTTTCCCGGTAATCCGTATTTGTA (site AGGCAAACTTA)”, the “recombinant UMI read abundance (log10)” value is 1.9.

On to “AGGCAGACATGGACCGGTTTTCCCGGTAATCCGTATTTGCA (site AGGAAGACTTG)”, for which the “recombinant UMI read abundance (log10)” value came out at 0.346.

With “AGGCAGACATGGACCGGTTTTCCCGGTAATCCGTATTTGCA (site AGGCAGACTTG)”, the “recombinant UMI read abundance (log10)” value turned out to be 2.49.

For the sequence “AGGCAGACATGGACCGGTTTTCCCGGTAATCCGTATTTGCA (site AGGGAGACTTG)”, the “recombinant UMI read abundance (log10)” value was 0.0572.

For “AGGCAGACATGGACCGGTTTTCCCGGTAATCCGTATTTGCA (site AGGTAGACTTG)”, the “recombinant UMI read abundance (log10)” value amounted to 0.965.

With “AGGCAGACATGGACCGGTTTTCCCGGTAATCCGTATTTGCT (site AGGAAGACTTG)”, the “recombinant UMI read abundance (log10)” value was 0.

On to “AGGCAGACATGGACCGGTTTTCCCGGTAATCCGTATTTGCT (site AGGCAGACTAG)”, for which the “recombinant UMI read abundance (log10)” value amounted to 2.13.

On to “AGGCCGGCATGGACCGGTTTTCCCGGTAATCCGTATTTGGC (site AGGCCGGCTGC)”, for which the “recombinant UMI read abundance (log10)” value was 1.07.

As to “AGGCCGGCATGGACCGGTTTTCCCGGTAATCCGTATTTGGC (site CGGCCGGCTGC)”, the “recombinant UMI read abundance (log10)” value came out at 0.

For the sequence “AGGCCGGCATGGACCGGTTTTCCCGGTAATCCGTATTTGGC (site GGGCCGGCTGC)”, the “recombinant UMI read abundance (log10)” value came to 0.

“AGGCCGGCATGGACCGGTTTTCCCGGTAATCCGTATTTGGC (site TGGCCGGCTGC)”: the “recombinant UMI read abundance (log10)” value was determined as 0.

As for “AGGCCTACATGGACCGGTTTTCCCGGTAATCCGTATTTGAC (site AGGACTACTGT)”, the “recombinant UMI read abundance (log10)” value came to 0.528.

Consider “AGGCCTACATGGACCGGTTTTCCCGGTAATCCGTATTTGAC (site AGGCCTACTGT)”, for which the “recombinant UMI read abundance (log10)” value was 2.67.

Regarding “AGGCCTACATGGACCGGTTTTCCCGGTAATCCGTATTTGAC (site AGGGCTACTGT)”, the “recombinant UMI read abundance (log10)” value turned out to be 0.

With “AGGCCTACATGGACCGGTTTTCCCGGTAATCCGTATTTGAC (site AGGTCTACTGT)”, the “recombinant UMI read abundance (log10)” value was found to be 0.

“AGGCGTTCATGGACCGGTTTTCCCGGTAATCCGTATTTGTG (site AGGCGTTCTCA)”: the “recombinant UMI read abundance (log10)” value is 1.09.

Regarding “AGGCTTTCATGGACCGGTTTTCCCGGTAATCCGTATTTGAC (site AGACTTTCTGT)”, the “recombinant UMI read abundance (log10)” value was 0.817.

On to “AGGCTTTCATGGACCGGTTTTCCCGGTAATCCGTATTTGAC (site AGCCTTTCTGT)”, for which the “recombinant UMI read abundance (log10)” value came to 0.212.

On to “AGGCTTTCATGGACCGGTTTTCCCGGTAATCCGTATTTGAC (site AGGCTTTCTGT)”, for which the “recombinant UMI read abundance (log10)” value came to 0.502.

As to “AGGCTTTCATGGACCGGTTTTCCCGGTAATCCGTATTTGAC (site AGTCTTTCTGT)”, the “recombinant UMI read abundance (log10)” value stood at 0.

On to “AGGCTTTCATGGACCGGTTTTCCCGGTAATCCGTATTTGGC (site AGGCTTTCTGC)”, for which the “recombinant UMI read abundance (log10)” value was 1.61.

With “AGGGATCCATGGACCGGTTTTCCCGGTAATCCGTATTTGAG (site AGGGATCCTCT)”, the “recombinant UMI read abundance (log10)” value turned out to be 0.635.

The record behind these values is the supplement of paper PMC11208160.
